Patent US6245778A, “1,6-naphthyridine anti-convulsants” (SmithKline Beecham p.l.c., priority 1997, dated 2001)
Where a name gives a salt, the structure may show the parent alone.

Each compound was assayed on electrically-induced seizures (tonic seizure threshold, CC50) (assay: Maximal electroshock seizure (MEST) threshold test). Conditions: mice, 10 mg/kg p.o., suspension in methyl cellulose, one hour post dosing.
Assay type: in vivo

For CN1CCc2ncc(NC(=O)c3ccccc3)cc2C1 [Example 2, N-(6-Methyl-5,6,7,8-tetrahydro[1,6]naphthyridin-3-yl)-benzamide], which “increase in seizure threshold (CC50) compared to control” value (“increase in seizure threshold (CC50)” below) is on record?
The value was 97%.

For COc1ccc(C(=O)Nc2cnc3c(c2)CN(C)CC3)cc1Br.Cl [Example 1, N-(6-Methyl-5,6,7,8-tetrahydro[1,6]naphthyridin-3-yl)-3-bromo-4-methoxybenzamide, monohydrochloride], which “increase in seizure threshold (CC50)” value is on record?
Its value is 177%.

With CCOc1ccc(C(=O)Nc2cnc3c(c2)CN(C)CC3)cc1 [Example 5, N-(6-Methyl-5,6,7,8-tetra hydro[1,6]naphthyridin-3-yl)-4-ethoxybenzamide, monohydrochloride] as the compound, how does the “increase in seizure threshold (CC50)” value read?
Its value is 106%.

These compounds were tested against novel receptor obtainable from rat forebrain tissue (assay: Radioligand binding assay, displacement of [3H]-Compound A from rat forebrain tissue). Conditions: [3H]-Compound A 20 nM, room temperature, 1 hour.
Method: The affinity of test compounds to the novel receptor site is assessed as follows. Whole forebrain tissue is obtained from rats. The tissue is first homogenised in buffer (usually 50 mM Tris/HCl, pH 7.4). The homogenised tissue is washed by centrifugation and resuspension in the same buffer, then stored at -70° C. until used. […] The final concentration of [3H]-Compound A in the mixture is usually 20 nM. The mixture is incubated at room temperature for 1 hour. [3H]-Compound A bound to the tissue is then separated from unbound [3H]-Compound A by filtration through Whatman GF/B glass fibre filters. The filters are then washed rapidly with ice-cold buffer. The amount of radioactivity bound to the tissue trapped on the filters is measured by addition of liquid scintillation cocktail to the filters followed by counting in a liquid scintillation counter. In order to determine the amount of "specific" binding of [3H]-Compound A, parallel assays are carried out as above in which [3H]-Compound A and tissue are incubated together in the presence of unlabelled Compound A (usually 3 μM). The amount of binding of [3H]-Compound A remaining in the presence of this unlabelled compound is defined as "non-specific" binding. This amount is subtracted from the total amount of [3H]-Compound A binding (i.e. that present in the absence of unlabelled compound) to obtain the amount of "specific" binding of [3H]-Compound A to the novel site. The affinity of the binding of test compounds to the novel site can be estimated by incubating together [3H]-Compound A and tissue in the presence of a range of concentrations of the compound to be tested. The decrease in the level of specific [3H]Compound A binding as a result of competition by increasing concentrations of the compound under test is plotted graphically, and non-linear regression analysis of the resultant curve is used to provide an estimate of compound affinity in terms of pKi value.

Which “in vitro binding affinity, pKi” value does the source give for CCCOc1ccc(C(=O)Nc2cnc3c(c2)CN(C)CC3)cc1C#N [Example 30, N-(6-Methyl-5,6,7,8-tetrahydro[1,61naphthyridin-3yl)-3-cyano-4-n-propyloxybenzamide, hydrochloride] here?
The value was over 8.0.

With CCOc1ccc(C(=O)Nc2cnc3c(c2)CN(C)CC3)cc1[N+](=O)[O-].Cl [Example 20, N-(6-Methyl-5,6,7,8-tetrahydro[1,6]naphthyridin-3-yl)-4-ethoxy-3-nitrobenzamide hydrochloride] as the compound, how does the “in vitro binding affinity, pKi” value read?
The value was over 8.0.

CC(C)Oc1ccc(C(=O)Nc2cnc3c(c2)CN(C)CC3)cc1C(F)(F)F.Cl [Example 36, N-(6-Methyl-5,6,7,8-tetrahydro[1,6]naphthyridin-3-yl)-4-iso-propyloxy-3-trifluoromethylbenzamide, hydrochloride] was tested. Which “in vitro binding affinity, pKi” value did it give?
Its value is over 8.0.

How did the “in vitro binding affinity, pKi” value turn out when COc1ccc(C(=O)Nc2cnc3c(c2)CN(C)CC3)cc1Br.Cl [Example 1, N-(6-Methyl-5,6,7,8-tetrahydro[1,6]naphthyridin-3-yl)-3-bromo-4-methoxybenzamide, monohydrochloride] was run?
Its value is over 8.0.

With COc1cc(C(C)(C)C)ccc1C(=O)Nc1cnc2c(c1)CN(C)CC2.Cl [Example 3, N-(6-Methyl-5,6,7,8-tetrahydro[1,6]naphthyridin-3-yl)-2-methoxy-4-t-butylbenzamide, monohydrochloride] as the compound, how does the “in vitro binding affinity, pKi” value read?
The value was over 8.0.

Which “in vitro binding affinity, pKi” value does the source give for CCOc1ccc(C(=O)Nc2cnc3c(c2)CN(C)CC3)cc1Br [Example 11, N-(6-Methyl-5,6,7 ,8-tetrahydro[1,6]naphthyridin-3-yl)-3-bromo-4-ethoxybenzamide, monohydrochloride] here?
The value was over 8.0.

CC(C)Oc1ccc(C(=O)Nc2cnc3c(c2)CN(C)CC3)cc1Cl.Cl [Example 33, N-(6-Methyl-5,6,7,8-tetrahydro[1,6]naphthyridin-3-yl)-3-chloro-4-iso-propyloxybenzamide, hydrochloride] was tested. Which “in vitro binding affinity, pKi” value did it give?
The value was over 8.0.

COc1ccc(C(=O)Nc2cnc3c(c2)CN(C)CC3)cc1I.Cl [Example 28, N-(6-Methyl-5,6,7,8-tetrahydro[1,6]naphthyridin-3-yl)-3-iodo-4-methoxybenzamide hydrochloride] was tested. Which “in vitro binding affinity, pKi” value did it give?
Its value is over 8.0.

Which “in vitro binding affinity, pKi” value does the source give for CC(C)Oc1ccc(C(=O)Nc2cnc3c(c2)CN(C)CC3)cc1Br.Cl [Example 12, N-(6-Methyl-5,6,7,8-tetrahydro[1,6]naphthyridin-3-yl)-3-bromo-4-iso-propyloxybenzamide, monohydrochloride] here?
Its value is over 8.0.

How did the “in vitro binding affinity, pKi” value turn out when CN1CCc2ncc(NC(=O)c3ccc(C(C)(C)C)cc3)cc2C1 [Example 10, N-(6-Methyl-5,6,7,8-tetrahydrol[1,6]naphthyridin-3-yl)-4-t-butylbenzamide, monihydrochloride] was run?
Its value is over 8.0.
